Source: patent publication US11566032B2, “Radio-protective and chemo-protective substituted thiols” (TONIX PHARMACEUTICALS, INC., priority 2020, dated 2023)

How the values were obtained:
[1] = Phase 1 maximum tolerated dose (MTD) in mice, oral gavage; type: in vivo; details: 1,000 mg/kg, male mice
Method: (§1) Male mice were randomized and assessed in two phases: 1) for maximum tolerated doses (MTDs) of PrC-210, DzCH2SH, and 2Pip-2PrSH to determine dose levels for the efficacy study and 2) to evaluate the efficacy of the compounds when administered 60+5 minutes prior to exposure to total body irradiation (TBI) at an LD100/30 dose (990 cGy) (Tables 1 and 2).
(§2) For Phase 1 or 2, sterile water (vehicle), PrC-210, DzCH2SH, and 2Pip2PrSH were administered at 10 mL/kg calculated based on the most recent body weight via oral gavage. Animals were not fasted prior to administration of the compounds or vehicle. Mice in Phase 1 were administered the dose on Day 1 and mice in Phase 2 were administered the dose 60+5 minutes prior to TBI on Day 0.
(§3) All surviving animals were observed once daily for clinical signs (e.g., unusually low or high activity, lethargy, shivering, appearance of fur, bloody and water stool, and other symptoms of moribundity) at 1-2 hours post-irradiation and/or post-dose and once daily on non-dosing days until Day 4 (Phase 1) or Day 30 (Phase 2).
In Phase 1 (Table 1), all animals were normal when observed and all body weights were within normal range. The dose level of 1000 mg/kg was selected for Phase 2.

[2] = system: male mice exposed to total body irradiation (TBI); assay: Phase 2 efficacy: survival of mice dosed prior to total body irradiation (TBI) at LD100/30; type: in vivo; details: for median survival time / animals survived until scheduled sacrifice (Day 30) / mice found dead / mice moribund sacrificed: 1000 mg/kg oral gavage prior to TBI 9.9 Gy; for median survival time: 11 male mice per group; for body weight gain: Days 5 to 9 after TBI 9.9 Gy, compared to the vehicle group; for survival of animals through 30 days post exposure: treated prior to total body irradiation (LD100/30)
Method: as §1, §2
Irradiation was administered once to the whole body. TBI of mice were performed using a 6 MV LINAC photon source (TrueBeam STx source). Animals were irradiated at a dose rate of up to 80 cGy/min to the midline of the animals. The source irradiated animals to 50% of the dose from anterior-posterior direction and […] from the posterior-anterior direction. Dose measurements were performed with a PTW 31010 0.1 cc Semiflex Ion chamber.
as §3
In Phase 2 (Table 2), survival curves of mice treated with vehicle, PrC-210, DzCH2SH or 2Pip-PrSH prior to TBI with 9.9 Gy were measured (FIG. 1). […] Five mice were moribund sacrificed, and 6 mice were found dead. Survival in the Group 13 animals was 0% and median survival time was 8 days. In mice administered with PrC-210 before TBI (Group 14), 4 animals survived until scheduled sacrifice (Day 30) while 7 mice were moribund sacrificed. […] In mice administered with DzCH2SH before TBI (Group 15), 3 animals survived until scheduled sacrifice (Day 30) while 7 mice were moribund sacrificed, and one mouse was found dead. […] Five mice were moribund sacrificed and six mice were found dead. Survival in the Group 16 mice was 0% and median survival time was 10 days.

[3] = Exposure of the solid salt to the atmosphere (hygroscopicity); type: physicochemical; details: 10 minute exposure of a small amount to the atmosphere, diHCl salt
Method: Concentration (rotary evaporator at ambient temperature) provided a crude oily residue which was triturated with hexane producing a white solid. The hexane was removed (via pipette suction) and replaced with dry THE (25 ml). After an additional 10 minutes of trituration, the THF was removed and replaced with dry hexane (25 ml). After an additional 10 minutes of trituration, the hexane was removed and the resulting white solid was dried in vacuo over P2O5 providing 1.95 grams of diHCl salt of PrC-210 (88%).
In Reaction J: 34 ml of HCl in methanol, 6 eq. (1.25 M solution, Aldrich Cat #17935) was added to a solution of compound X, 2.5 grams, 0.007 moles dissolved in 10 mL dry methanol in a flask under argon and equipped for magnetic stirring and the reaction was stirred at room temperature for 24 hours. […] The solution was degassed by gently bubbling argon into the solution for 30 minutes. […]
In Reaction P: Compound XVI, 2.2 grams, 0.0058 moles was placed in a round-bottom flask equipped for magnetic stirring followed by 15 mL anhydrous trifluoroacetic acid (CF3COOH, Aldrich #8.08260). The flask was fitted with a condenser and the solution was refluxed for 5 hours whereupon it was determined that the reaction was complete using TLC by observing the disappearance of starting material and the appearance of a highly polar product, which stained positive with ninhydrin. […]

[4] = system: mice exposed to 8 Gy (LD100) radiation; assay: Protection of mice from lethal radiation (8 Gy, LD100); type: in vivo; details: oral gavage 15-90 minutes prior to 8 Gy (LD100), 60 days post irradiation
Method: The radioprotective efficacy of the thiols, prodrugs and double prodrugs according to this disclosure is assessed in mice. The compounds of the disclosure are administered via oral gavage to mice, and are compared to mice that have been administered 3-(methylamino)-2-(methylaminomethyl)propane-1-thiol (PrC-210), as well as to a control group or mice that are administered vehicle (i.e., containing no radioprotective additive).
More specifically, mice are assigned to three groups (Groups 1, 2 and 3). A control group, Group 1, is treated via oral gavage with vehicle (Lactated Ringer's and 5% dextrose, adjusted to pH 7.3 with sodium bicarbonate) 15-90 minutes prior to a dose of 8 Gy (LD100) radiation. Group 2 is treated via oral gavage with PrC-210, as a positive control, dissolved in Lactated Ringer's at a dose of 200 mg/kg 15-90 minutes prior to irradiation with 8 Gy (LD100). Group 3 is treated via oral gavage with compound 1 (PrC-210-PT) dissolved in Lactated Ringer's at a dose of 308 mg/kg 15-90 minutes prior to irradiation with 8 Gy (LD100). The mortality of the three groups is assessed for 60 days post irradiation. The experiment is repeated with doses of PrC-210 ranging from 200 mg/kg to 450 mg/kg. Molar equivalent dosages of the test compound (compound 1, Prc-210-PT) to PrC-210 are also assessed.
The experiment is repeated to assess the efficacy of compounds 2-23 as radioprotectors.

[5] = system: mice exposed to whole body irradiation; assay: Radiation dose required to kill 50% of mice (LD50), whole body irradiation; type: in vivo; details: oral gavage 60 minutes prior to whole body irradiation 2-12 Gy, 30 days
Method: The affect of the compounds according to the disclosure on the dose of radiation required to kill 50% of mice (LD50) is assessed.
Mice are assigned to three groups (Groups 1, 2 and 3). A control group, Group 1, is treated via oral gavage with vehicle (Lactated Ringer's and 5% dextrose, adjusted to pH 7.3 with sodium bicarbonate) 60 minutes prior to whole body irradiation (2 Gy). Group 2 is treated via oral gavage with PrC-210, as a positive control, dissolved in Lactated Ringer's at a dose of 200 mg/kg 60 minutes prior to whole body irradiation (2 Gy). Group 3 is treated via oral gavage with compound 1 (PrC-210-PT) dissolved in Lactated Ringer's at a dose of 308 mg/kg 60 minutes prior to whole body irradiation (2 Gy). The mortality of the three groups is assessed for 30 days post irradiation.
The experiment is repeated using varying radiation doses of 4, 6, 8, 10 and 12 Gy. The LD50 for each group was determined.
The experiment is repeated to assess compounds 2-23 as radioprotectors.

[6] = in vivo; cited from earlier work
[7] = clinical signs after TBI 9.9 Gy, of 11 mice

| SMILES | toxicity at the highest tested dose [1] | median survival time [2] | animals survived until scheduled sacrifice (Day 30) ([2]; of 11 mice) | mice found dead ([2]; of 11 mice) | mice moribund sacrificed ([2]; of 11 mice) | body weight gain [2] | Cold to touch skin, number of animals [2, 7] | Eye discharge, number of animals [2, 7] | Hypoactivity, number of animals [2, 7] | Lethargy and swollen head, number of mice [2, 7] | Swollen eye, number of animals [2, 7] | signs of hygroscopicity [3] | survival of animals through 30 days post exposure [2] | also measured |
| --- | --- | --- | --- | --- | --- | --- | --- | --- | --- | --- | --- | --- | --- | --- |
| CC(C)(S)C1CNCCN1 (stereo not drawn) [Compound 2Pip-2PrSH, 2-(piperazin-2-yl)propane-2-thiol] | did not produce any toxicity | 10 days | no animals survived | six | Five | did not gain body weights | 4 | one | 5 | one | one |  |  | Survival ([2]; 1000 mg/kg oral gavage 60+5 minutes prior to TBI 9.9 Gy (LD100/30), Day 30, 11 male mice per group): 0% |
| SCC1CNCCNC1 [DzCH2SH, (1,4-diazepan-6-yl)methanethiol] | did not produce any toxicity | 11 days | 3 | one | 7 | did not gain body weights | one | 2 | 5 | one | 2 | did not show any signs of hygroscopicity | increased survival | mortality rate at 8-days post-irradiation ([2]; 1000 mg/kg oral gavage prior to TBI 990 cGy): efficacious effects; Eye opacity, number of mice [2, 7]: one; Labored breathing, number of mice [2, 7]: one; eye cloudy, number of animals [2, 7]: 2; sunken eye, number of animals [2, 7]: 1 |
| CNCC(CS)CNC [PrC-210, 3-(methylamino)-2-((methylamino)methyl)propane-1-thiol, reference compound] | did not produce any toxicity | 11 days | 4 |  | 7 | significantly higher |  | one | 5 |  | one | did not show any signs of hygroscopicity | increased survival | rate of survival, control group versus treated mice [4]: control group demonstrates a reduced rate of survival compared to the mice treated; LD50 (radiation dose), control group versus treated mice [5]: control group demonstrates a lower LD50 compared to the mice treated; side effects compared with Amifostine [6]: less side effects than Amifostine; mean body weight ([2]; Day 9 after TBI 9.9 Gy): higher than body weights in the Groups 13, 15 and 16; Tremor, number of mice [2, 7]: 4 |
